Experimental data: BindingDB's records for PubMed 39011823 (University of Lille)

What follows are compounds tested against Leucyl-cystinyl aminopeptidase (Homo sapiens) (UniProt Q9UIQ6) (assay: Inhibition of IRAP (unknown origin) using L-pNA as substrate).
Chain of Leucyl-cystinyl aminopeptidase (Homo sapiens) (Q9UIQ6 whole entry, looked up): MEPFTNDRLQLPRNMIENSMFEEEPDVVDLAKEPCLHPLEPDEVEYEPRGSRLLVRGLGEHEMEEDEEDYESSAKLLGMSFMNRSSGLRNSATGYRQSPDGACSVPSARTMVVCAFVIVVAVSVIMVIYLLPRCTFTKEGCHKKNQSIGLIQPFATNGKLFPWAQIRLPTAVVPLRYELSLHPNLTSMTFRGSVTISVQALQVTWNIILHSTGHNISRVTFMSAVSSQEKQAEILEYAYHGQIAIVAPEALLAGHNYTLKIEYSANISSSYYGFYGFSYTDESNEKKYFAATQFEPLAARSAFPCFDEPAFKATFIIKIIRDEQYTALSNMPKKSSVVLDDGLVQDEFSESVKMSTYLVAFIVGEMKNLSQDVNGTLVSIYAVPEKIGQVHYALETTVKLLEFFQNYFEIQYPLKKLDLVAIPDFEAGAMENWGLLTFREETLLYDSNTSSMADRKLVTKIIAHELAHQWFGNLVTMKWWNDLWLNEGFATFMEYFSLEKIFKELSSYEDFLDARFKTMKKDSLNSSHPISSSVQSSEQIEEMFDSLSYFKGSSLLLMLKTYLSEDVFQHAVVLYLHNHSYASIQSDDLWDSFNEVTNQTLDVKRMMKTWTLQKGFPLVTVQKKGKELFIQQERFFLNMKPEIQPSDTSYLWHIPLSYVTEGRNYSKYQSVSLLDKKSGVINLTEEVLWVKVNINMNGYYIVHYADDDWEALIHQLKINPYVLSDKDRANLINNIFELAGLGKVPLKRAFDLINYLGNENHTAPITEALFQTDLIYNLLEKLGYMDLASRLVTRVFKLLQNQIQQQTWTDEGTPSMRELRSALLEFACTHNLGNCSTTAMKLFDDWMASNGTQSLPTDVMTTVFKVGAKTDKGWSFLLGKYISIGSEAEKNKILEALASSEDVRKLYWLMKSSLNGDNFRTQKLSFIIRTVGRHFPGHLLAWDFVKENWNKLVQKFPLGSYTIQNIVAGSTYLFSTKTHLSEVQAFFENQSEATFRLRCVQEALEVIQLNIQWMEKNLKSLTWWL
In the case of `O=S(=O)(Nc1ccccc1)c1ccccc1` [phenyl(phenylsulfonyl)amine], the IC50 is reported as 2100 nM.

What follows are compounds tested against Leucyl-cystinyl aminopeptidase (Homo sapiens) (UniProt Q9UIQ6) (assay: Inhibition of IRAP (unknown origin) using L-AMC as substrate).
For `CC(C)C[C@H](CP(=O)(O)[C@@H](N)CCc1ccccc1)C(N)=O`, the IC50 was 218 nM. With `COc1ccc(C(=O)O)cc1S(=O)(=O)N(C)c1cc(C(F)(F)F)ccc1N1CCN(C)CC1` the IC50 was greater than 200000 nM. In the case of `COc1ccc(C(=O)O)cc1S(=O)(=O)N(C)c1cc(C(F)(F)F)ccc1N1CCCCC1`, the IC50 is reported as 160000 nM. In the case of `O=C(C[C@H](Cc1ccc(O)cc1)n1nncc1CNS(=O)(=O)c1ccc(-c2ccccn2)s1)NO` [US20240101542, Compound 33], the IC50 is reported as 84 nM. Compound `O=C(NO)[C@H](Cc1ccc(Oc2ccccc2)cc1)n1cc(CNS(=O)(=O)c2ccc(-c3ccccn3)s2)nn1` [US20240101542, Compound 23] has an IC50 of 560 nM. Compound `CC(C)C[C@@H](CP(=O)(O)[C@@H](N)CCc1ccccc1)C(N)=O` has an IC50 of 344 nM. Work on `C#C[C@H](CP(=O)(O)[C@@H](N)CCc1ccccc1)C(=O)N[C@@H](Cc1ccccc1)C(N)=O` yielded an IC50 of 2 nM. Work on `COc1ccc(C[C@@H](C(=O)NO)n2cc(CNS(=O)(=O)c3ccc(-c4ccccc4)s3)nn2)cc1` [US20240101542, Compound 24] yielded an IC50 of 383 nM. Work on `COc1ccc(C[C@@H](C(=O)NO)n2cc(CNS(=O)(=O)c3ccc(-c4ccccn4)s3)nn2)cc1` [US20240101542, Compound 25] yielded an IC50 of 186 nM. With `COc1ccc(C(=O)O)cc1S(=O)(=O)Nc1cc(C(F)(F)F)ccc1N1CCCCC1` the IC50 was greater than 200000 nM.

These compounds were tested against Insulin-regulated aminopeptidase (Homo sapiens) (assay: Inhibition of human recombinant IRAP expressed in baculovirus infected Sf9 cells using L-AMC as substrate incubated for 5 to 10 mins by Michaelis-Menten analysis).
`NC1CCc2c(Br)ccc(Br)c2CC1=O` (stereo not drawn) gave an IC50 of 34 nM. Work on `NC1CCc2c(Br)ccc(-c3ccccc3)c2CC1=O` (stereo not drawn) yielded an IC50 of 120 nM.
